We go through ten compounds from paper PMC11519910, “Semisynthetic Ecdysteroid Cinnamate Esters and tert-Butyl Oxime Ether Derivatives with Trypanocidal Activity” (Journal of Natural Products, 2024).

The subject of one series is T. cruzi epimastigotes. Briefly: Trypanocidal activity against epimastigotes (XTT). As to conditions: for inhibition at 5 µM: read-out: inhibition of epimastigote proliferation; for IC50: 72 h incubation, read-out: IC50, epimastigote proliferation. Format: cell-based, Trypanosoma cruzi. Here is the method: Trypanocidal activity against epimastigotes was assessed by XTT (2,3-bis(2-methoxy-4-nitro-5-sulfophenyl)-2H-tetrazolium-5-carboxanilide). Briefly, 1.5 × 10^6 epimastigotes were seeded per well in 96-well plates. The ecdysteroid was added at 8 concentrations ranging from 25 to 0.2 μM for 72 h at 28 °C. […] Following the incubation period, the plates were examined under the microscope for sterility and growth of controls. To the plates, 50 μL of XTT and PMS (phenazine methosulfate, Sigma-Aldrich, MO, USA) solution (XTT and PMS at 0.5 and 0.025 mg/mL, respectively) was added, and the plates were then incubated at 28 °C for 3 h. The parasites were fixed by the addition of 50 μL of MeOH for 15 min before the absorbance was measured at 490 nm on a Tecan plate reader. Results were expressed as percentage cell viability relative to the vehicle control or IC50 values calculated by GraphPad Prism version 8.0. All assessments were performed in triplicates in three independent experiments.

The subject of series [1] is T. cruzi (GFPY parasite release in trypomastigote-infected RAW264.7 cells). Briefly: FACS-based quantitation of released parasites from infected RAW264.7 cells. The series is classed as cell-based, Trypanosoma cruzi. Here is the method: The host RAW264.7 cells were seeded in 24-well plates at a density of 20,000 cells/mL. The cells were allowed to adhere for 24 h and infected with trypomastigotes at a multiplicity of 10. On the next day, noninternalized trypomastigotes were washed away, and fresh RPMI with 2% hiFBS was added to the wells along with the C44 at various concentrations. […] Three independent experiments in triplicates were performed to determine the activity of the ecdysteroid.

Another series relates to RAW264.7 cells. Kind of series: cells. Format: cell-based. Here is the method: Cytotoxicity or antiproliferative effects of ecdysteroid against mammalian cells was assessed using MTT (3-(4,5-dimethylthiazol-2-yl)-2,5-diphenyltetrazolium bromide). CHO or RAW264.7 cells were used for screening the compounds. Briefly, the cells were seeded at a density of 2000/well in 96-well plates. After 24 h of incubation at 37 °C and 5% CO2, ecdysteroid ([…]) was added to the cells at various concentrations. In all the experiments, podophyllotoxin was used as the positive control. In all experiments, vehicle controls were included, and the final DMSO concentration was below 0.5%. After 72 h, the plates were examined under an inverted microscope for sterility and growth of controls after the incubation period. The spent medium was removed, and 100 μL of fresh medium containing 0.5 mg/mL of the final concentration of MTT was added to the cells. The plates were incubated for 4 h at 37 °C in 5% CO2. The formazan crystals were solubilized by adding 200 μL of DMSO and mixed thoroughly. The absorbance was determined at 550 nm by using a Tecan plate reader. The values were corrected to the blank medium and vehicle control (DMSO only). Results were expressed as percentage cell viability relative to the vehicle control. Each assay was performed in technical triplicate in three independent experiments.

Series [2] deals with T. cruzi amastigotes in CCL39 fibroblasts. Kind of series: Fluorescence microscopy of amastigote replication in infected CCL39 fibroblasts. The series is classed as cell-based, Trypanosoma cruzi. As to conditions: 5 μM, of infection. Here is the method: The host CCL39 cells were seeded in 24-well plates at a density of 20,000 cells/mL. The cells were allowed to adhere for 24 h and infected with trypomastigotes at a multiplicity of 10. On the next day, non-internalized trypomastigotes were washed away, and fresh RPMI with 2% hiFBS was added to the wells along with the test substance. […] The images were analyzed on ImageJ.

Another series concerns T. cruzi. Also noted: method as in PMID 30517542. The conditions noted are these: free acid forms; read-out: IC50, antitrypanosomal activity; cited from earlier work.

Where two headings read alike, the source gives them in different places.

Regarding `CC(C)(O)CC[C@H]1OC(C)(C)O[C@]1(C)[C@H]1CC=C2C3=C/C(=N/OC(C)(C)C)[C@@H]4C[C@H]5OC(C)(C)O[C@H]5C[C@]4(C)[C@H]3CC[C@@]21C` [Compound 28], in the series on T. cruzi epimastigotes (Trypanosoma cruzi, 72 h), the inhibition at 5 µM is not below 30%.

On to `CC(C)(O)CC[C@H]1OC(C)(C)O[C@]1(C)[C@H]1CC[C@@]2(O)C3=C/C(=N\OC(C)(C)C)[C@@H]4C[C@H]5OC(C)(C)O[C@H]5C[C@]4(C)[C@H]3CC[C@]12C` [Compound 24], for which, in the series with T. cruzi epimastigotes (Trypanosoma cruzi, 72 h), the inhibition at 5 µM is not below 30%.

Take `CC(C)(O)CC[C@@H](O)[C@](C)(O)[C@H]1CC=C2C3=C/C(=N\OC(C)(C)C)[C@@H]4C[C@@H](O)[C@@H](OC(=O)/C=C/c5ccccc5)C[C@]4(C)[C@H]3CC[C@@]21C` [Compound 44]: the IC50 in series [1] (Trypanosoma cruzi, 144 h, trypomastigote-infected RAW264.7 cells, FACS after 6 days) was 2700 ± 100 nM; in the series with T. cruzi epimastigotes it was 1700 ± 200 nM; with T. cruzi epimastigotes (Trypanosoma cruzi, 72 h), less than 2000 nM; with RAW264.7 cells (Mus musculus, RAW264.7, MTT, 72 h of incubation, read-out: IC50, cell proliferation in RAW264.7 cells), 11.6 ± 1.6 µM. Moreover, the “inhibition of trypomastigote release” value in series [1] (infected RAW264.7 cells) is “more than 95%”. Moreover, in the series with RAW264.7 cells, the “cytotoxicity on the host cells” value was “moderate cytotoxicity”. For the same compound, the “selectivity, T. cruzi over RAW264.7 host macrophages” value in the series with RAW264.7 cells (apparent selectivity, cytotoxicity toward T. cruzi vs host cells) was “more than 5 fold”. Further, the “inhibition of amastigote replication” value in series [2] is reported as “efficiently inhibits amastigote replication”.

Regarding `COc1cc(C=CC(=O)O)cc(OC)c1OC` [3,4,5-trimethoxycinnamic acid], in the series with T. cruzi, the IC50 was more than 600 µM.

Take `CC(C)(O)CC[C@@H](O)[C@](C)(O)[C@H]1CC=C2C3=C/C(=N\OC(C)(C)C)[C@@H]4C[C@@H](O)[C@@H](O)C[C@]4(C)[C@H]3CC[C@@]21C` [Compound 42]: in the series on T. cruzi epimastigotes (Trypanosoma cruzi, 72 h), the inhibition at 5 µM is less than 30%.

On to `CC(C)(O)CC[C@@H](O)[C@](C)(O)[C@H]1CC=C2C3=C/C(=N/OC(C)(C)C)[C@@H]4C[C@@H](O)[C@@H](O)C[C@]4(C)[C@H]3CC[C@@]21C` [Compound 43], for which the inhibition at 5 µM in the series on T. cruzi epimastigotes (Trypanosoma cruzi, 72 h) was less than 30%.

Consider `CC(C)(O)CC[C@@H](OC(=O)/C=C/c1ccccc1)[C@](C)(O)[C@H]1CC[C@@]2(O)C3=CC(=O)[C@@H]4C[C@@H](OC(=O)/C=C/c5ccccc5)[C@@H](O)C[C@]4(C)[C@H]3CC[C@]12C` [Compound 39], for which the inhibition at 5 µM in the series on T. cruzi epimastigotes (Trypanosoma cruzi, 72 h) is not below 30%.

`COc1ccc(C=CC(=O)O)cc1` [4-methoxycinnamic acid (p-coumaric acid), 4-methoxycinnamic acid]: in the series with T. cruzi, the IC50 was more than 600 µM.

For the compound `CC(C)(O)CC[C@@H](OC(=O)/C=C/c1ccccc1)[C@](C)(O)[C@H]1CC[C@@]2(O)C3=CC(=O)[C@@H]4C[C@@H](O)[C@@H](OC(=O)/C=C/c5ccccc5)C[C@]4(C)[C@H]3CC[C@]12C` [Compound 40], the inhibition at 5 µM with T. cruzi epimastigotes (Trypanosoma cruzi, 72 h) is not below 30%.

Consider `COc1ccc(/C=C/C(=O)O)c(OC)c1` [trans-2,4-dimethoxycinnamic acid], for which, in the series with T. cruzi, the IC50 was more than 600 µM.
